{"source": "patent US20250120961A1", "about": "“P53 MODULATORS” (Nested Therapeutics, Inc., priority 2023, published 2025)", "note": "pEC50: −log10 of the molar value.", "data": [{"target": "His-tagged p53-Y220C DNA binding domain (Homo sapiens, UniProt P04637, Y220C)", "experiment": "Biochemical p53-Y220C and DNA binding assay (HTRF)", "details": "inflection point of 10 points dose titration, 4 parameter curve fit; p53-Y220C DBD 100 nM, biotinylated dsDNA 200 nM, 27 to 29° C.; read-out: HTRF IP", "how_it_was_run": "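DBD (aa 94-312, 100 nM) mixed with compound and biotinylated consensus dsDNA (200 nM) in DPBS/20 mM NaCl/0.5% BSA, overnight at 4 °C, then 60 min at 27-29 °C; anti-His Tb/streptavidin-d2 HTRF read. Activation normalized to reference compound (500%) and DMSO (0%); 10-point curve, inflection point reported.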", "values": [{"smiles": "CN1CC[C@@H](Nc2cccc3c(CC(F)(F)F)c(/C=N\\OCc4cccc(=O)n4C)sc23)[C@@H](F)C1", "note": "[Example 2-30, (Z)-7-(((3S,4R)-3-fluoro-1-methylpiperidin-4-yl)amino)-3-(2,2,2-trifluoroethyl)benzo[b]thiophene-2-carbaldehyde O-((1-methyl-6-oxo-1,6-dihydropyridin-2-yl)methyl) oxime]", "pEC50": "6.00 to 7.00"}, {"smiles": "CN1CC[C@@H](Nc2cccc3c(CC(F)(F)F)c(/C=N/OCc4cccc(=O)[nH]4)sc23)[C@@H](F)C1", "note": "[Example 2-31, (E)-7-(((3S,4R)-3-fluoro-1-methylpiperidin-4-yl)amino)-3-(2,2,2-trifluoroethyl)benzo[b]thiophene-2-carbaldehyde O-((6-oxo-1,6-dihydropyridin-2-yl)methyl) oxime]", "pEC50": "> 7.00"}, {"smiles": "CN1CC[C@@H](Nc2cccc3c(SC(F)(F)F)c(/C=N/OCC(C)(C)O)sc23)[C@@H](F)C1", "note": "[Example 2-32, (E)-7-(((3S,4R)-3-fluoro-1-methylpiperidin-4-yl)amino)-3-((trifluoromethyl)thio)benzo[b]thiophene-2-carbaldehyde O-(2-hydroxy-2-methylpropyl) oxime]", "pEC50": "6.00 to 7.00"}, {"smiles": "CNC(=O)c1ccc(CO/N=C/c2sc3c(N[C@@H]4CCN(C)C[C@@H]4F)cccc3c2SC(F)(F)F)c(NC)c1", "note": "[Example 2-33, 4-(((((E)-(7-(((3S,4R)-3-fluoro-1-methylpiperidin-4-yl)amino)-3-((trifluoromethyl)thio)benzo[b]thiophen-2-yl)methylene)amino)oxy)methyl)-N-methyl-3-(methylamino)benzamide]", "pEC50": "> 7.00"}, {"smiles": "CNC(=O)c1ccc(CO/N=C/c2oc3c(N[C@@H]4CCN(C)C[C@@H]4F)cccc3c2SC(F)(F)F)c(NC)c1", "note": "[Example 2-34, 4-(((((E)-(7-(((3S,4R)-3-fluoro-1-methylpiperidin-4-yl)amino)-3-((trifluoromethyl)thio)benzofuran-2-yl)methylene)amino)oxy)methyl)-N-methyl-3-(methylamino)benzamide]", "pEC50": "< 6.00"}, {"smiles": "F[C@H]1CNC[C@H]1Nc1cccc2c(CC(F)(F)F)c(/C=N/OC3CCOC3)sc12", "note": "(stereo partly drawn) [Example 3-1, (E)-7-(((3R,4S)-4-fluoropyrrolidin-3-yl)amino)-3-(2,2,2-trifluoroethyl)benzo[b]thiophene-2-carbaldehyde O-tetrahydrofuran-3-yl oxime]", "pEC50": "> 7.00"}, {"smiles": "F[C@H]1CNC[C@H]1Nc1cccc2c(CC(F)(F)F)c(/C=N/OCc3cccnc3)sc12", "note": "[Example 3-2, (E)-7-(((3R,4S)-4-fluoropyrrolidin-3-yl)amino)-3-(2,2,2-trifluoroethyl)benzo[b]thiophene-2-carbaldehyde O-pyridin-3-ylmethyl oxime]", "pEC50": "> 7.00"}, {"smiles": "F[C@H]1CNC[C@H]1Nc1cccc2c(CC(F)(F)F)c(/C=N/OCc3ccccn3)sc12", "note": "[Example 3-3, (E)-7-(((3R,4S)-4-fluoropyrrolidin-3-yl)amino)-3-(2,2,2-trifluoroethyl)benzo[b]thiophene-2-carbaldehyde O-pyridin-2-ylmethyl oxime]", "pEC50": "6.00 to 7.00"}, {"smiles": "Cn1cnc(CO/N=C/c2sc3c(N[C@@H]4CNC[C@@H]4F)cccc3c2CC(F)(F)F)n1", "note": "[Example 3-4, (E)-7-(((3R,4S)-4-fluoropyrrolidin-3-yl)amino)-3-(2,2,2-trifluoroethyl)benzo[b]thiophene-2-carbaldehyde O-((1-methyl-1H-1,2,4-triazol-3-yl)methyl) oxime]", "pEC50": "6.00 to 7.00"}, {"smiles": "F[C@H]1CNC[C@H]1Nc1cccc2c(CC(F)(F)F)c(/C=N/OCc3nc4ccccc4s3)sc12", "note": "[Example 3-5, (E)-7-(((3R,4S)-4-fluoropyrrolidin-3-yl)amino)-3-(2,2,2-trifluoroethyl)benzo[b]thiophene-2-carbaldehyde O-(benzo[d]thiazol-2-ylmethyl) oxime]", "pEC50": "6.00 to 7.00"}, {"smiles": "Cc1nnc(CO/N=C/c2sc3c(N[C@@H]4CNC[C@@H]4F)cccc3c2CC(F)(F)F)o1", "note": "[Example 3-6, (E)-7-(((3R,4S)-4-fluoropyrrolidin-3-yl)amino)-3-(2,2,2-trifluoroethyl)benzo[b]thiophene-2-carbaldehyde O-((5-methyl-1,3,4-oxadiazol-2-yl)methyl) oxime]", "pEC50": "6.00 to 7.00"}, {"smiles": "Cc1cc(CO/N=C/c2sc3c(N[C@@H]4CNC[C@@H]4F)cccc3c2CC(F)(F)F)no1", "note": "[Example 3-7, (E)-7-(((3R,4S)-4-fluoropyrrolidin-3-yl)amino)-3-(2,2,2-trifluoroethyl)benzo[b]thiophene-2-carbaldehyde O-((5-methylisoxazol-3-yl)methyl) oxime]", "pEC50": "6.00 to 7.00"}, {"smiles": "O=C1CC(CO/N=C/c2sc3c(N[C@@H]4CNC[C@@H]4F)cccc3c2CC(F)(F)F)CN1", "note": "(stereo partly drawn) [Example 3-8, (E)-7-(((3R,4S)-4-fluoropyrrolidin-3-yl)amino)-3-(2,2,2-trifluoroethyl)benzo[b]thiophene-2-carbaldehyde O-((5-oxopyrrolidin-3-yl)methyl) oxime]", "pEC50": "6.00 to 7.00"}, {"smiles": "CS(=O)(=O)NC1CCC(=Cc2sc3c(N[C@@H]4CCNC[C@@H]4F)cccc3c2CC(F)(F)F)CC1", "note": "(stereo partly drawn) [Example 4-1, N-(4-((7-(((3S,4R)-3-fluoropiperidin-4-yl)amino)-3-(2,2,2-trifluoroethyl)benzo[b]thiophen-2-yl)methylene)cyclohexyl)methanesulfonamide]", "pEC50": "< 6.00"}, {"smiles": "CC(=O)N1CCC(=Cc2sc3c(N[C@@H]4CCNC[C@@H]4F)cccc3c2CC(F)(F)F)CC1", "note": "[Example 4-2, 1-(4-((7-(((3S,4R)-3-fluoropiperidin-4-yl)amino)-3-(2,2,2-trifluoroethyl)benzo[b]thiophen-2-yl)methylene)piperidin-1-yl)ethan-1-one]", "pEC50": "< 6.00"}, {"smiles": "OC(/C=C/c1sc2c(N[C@@H]3CNC[C@@H]3F)cccc2c1CC(F)(F)F)c1ccccn1", "note": "(stereo partly drawn) [Example 5-1, (E)-3-(7-(((3R,4S)-4-fluoropyrrolidin-3-yl)amino)-3-(2,2,2-trifluoroethyl)benzo[b]thiophen-2-yl)-1-(pyridin-2-yl)prop-2-en-1-ol]", "pEC50": "< 6.00"}, {"smiles": "CN1CC[C@@H](Nc2cccc3c(CC(F)(F)F)c(/C=C/C(O)c4ccccn4)sc23)[C@@H](F)C1", "note": "(stereo partly drawn) [Example 5-2, (E)-3-(7-(((3S,4R)-3-fluoro-1-methylpiperidin-4-yl)amino)-3-(2,2,2-trifluoroethyl)benzo[b]thiophen-2-yl)-1-(pyridin-2-yl)prop-2-en-1-ol]", "pEC50": "< 6.00"}, {"smiles": "OC(/C=C/c1sc2c(N[C@@H]3CNC[C@@H]3F)cccc2c1CC(F)(F)F)c1cc(Cl)n[nH]1", "note": "(stereo partly drawn) [Example 5-3, (E)-1-(3-chloro-1H-pyrazol-5-yl)-3-(7-(((3R,4S)-4-fluoropyrrolidin-3-yl)amino)-3-(2,2,2-trifluoroethyl)benzo[b]thiophen-2-yl)prop-2-en-1-ol]", "pEC50": "6.00 to 7.00"}, {"smiles": "CN1CC[C@@H](Nc2cccc3c(CC(F)(F)F)c(/C=C/C(O)c4cccnc4)sc23)[C@@H](F)C1", "note": "(stereo partly drawn) [Example 5-4, (E)-3-(7-(((3S,4R)-3-fluoro-1-methylpiperidin-4-yl)amino)-3-(2,2,2-trifluoroethyl)benzo[b]thiophen-2-yl)-1-(pyridin-3-yl)prop-2-en-1-ol]", "pEC50": "6.00 to 7.00"}, {"smiles": "CN1CC[C@@H](Nc2cccc3c(CC(F)(F)F)c(/C=C/C(O)c4cnn(C)c4)sc23)[C@@H](F)C1", "note": "(stereo partly drawn) [Example 5-5]", "pEC50": "6.00 to 7.00"}, {"smiles": "CN1CC[C@@H](Nc2cccc3c(CC(F)(F)F)c(/C=C/C(O)c4cnn5ccccc45)sc23)[C@@H](F)C1", "note": "(stereo partly drawn) [Example 5-6, (E)-3-(7-(((3S,4R)-3-fluoro-1-methylpiperidin-4-yl)amino)-3-(2,2,2-trifluoroethyl)benzo[b]thiophen-2-yl)-1-(pyrazolo[1,5-a]pyridin-3-yl)prop-2-en-1-ol]", "pEC50": "6.00 to 7.00"}, {"smiles": "CN1CC[C@@H](Nc2cccc3c(CC(F)(F)F)c(/C=C/C(O)c4cnn(CC5CC5)c4)sc23)[C@@H](F)C1", "note": "(stereo partly drawn) [Example 5-7, (E)-1-(1-(cyclopropylmethyl)-1H-pyrazol-4-yl)-3-(7-(((3S,4R)-3-fluoro-1-methylpiperidin-4-yl)amino)-3-(2,2,2-trifluoroethyl)benzo[b]thiophen-2-yl)prop-2-en-1-ol]", "pEC50": "6.00 to 7.00"}, {"smiles": "CN1CC[C@@H](Nc2cccc3c(CC(F)(F)F)c(/C=C/C(O)c4cn[nH]c4)sc23)[C@@H](F)C1", "note": "(stereo partly drawn) [Example 5-8, (E)-3-(7-(((3S,4R)-3-fluoro-1-methylpiperidin-4-yl)amino)-3-(2,2,2-trifluoroethyl)benzo[b]thiophen-2-yl)-1-(1H-pyrazol-4-yl)prop-2-en-1-ol]", "pEC50": "6.00 to 7.00"}, {"smiles": "CN1CC[C@@H](Nc2cccc3c(CC(F)(F)F)c(/C=C/C(O)c4ccncc4)sc23)[C@@H](F)C1", "note": "(stereo partly drawn) [Example 5-9, (E)-3-(7-(((3S,4R)-3-fluoro-1-methylpiperidin-4-yl)amino)-3-(2,2,2-trifluoroethyl)benzo[b]thiophen-2-yl)-1-(pyridin-4-yl)prop-2-en-1-ol]", "pEC50": "6.00 to 7.00"}, {"smiles": "O=c1cccc(C(O)/C=C/c2sc3c(N[C@@H]4CNC[C@@H]4F)cccc3c2CC(F)(F)F)[nH]1", "note": "(stereo partly drawn) [Example 5-10, 6-((E)-3-(7-(((3R,4S)-4-fluoropyrrolidin-3-yl)amino)-3-(2,2,2-trifluoroethyl)benzo[b]thiophen-2-yl)-1-hydroxyallyl)pyridin-2(1H)-one]", "pEC50": "6.00 to 7.00"}, {"smiles": "CN1CC[C@@H](Nc2cccc3c(CC(F)(F)F)c(/C=C/CNC(=O)C4CC4)sc23)[C@@H](F)C1", "note": "[Example 6-1, N-((E)-3-(7-(((3S,4R)-3-fluoro-1-methylpiperidin-4-yl)amino)-3-(2,2,2-trifluoroethyl)benzo[b]thiophen-2-yl)allyl)cyclopropanecarboxamide]", "pEC50": "6.00 to 7.00"}, {"smiles": "CN1CC[C@@H](Nc2cccc3c(CC(F)(F)F)c(/C=C/CNC(=O)c4cnn(C)c4)sc23)[C@@H](F)C1", "note": "[Example 6-2, N-((E)-3-(7-(((3S,4R)-3-fluoro-1-methylpiperidin-4-yl)amino)-3-(2,2,2-trifluoroethyl)benzo[b]thiophen-2-yl)allyl)-1-methyl-1H-pyrazole-4-carboxamide]", "pEC50": "6.00 to 7.00"}]}]}
